# Laboratory results as given in patent publication US6355799B1, “Substituted benzene compounds, process for their preparation, and herbicidal and defoliant compositions containing them” (ISK Americas Incorporated, priority 1997, dated 2002).
# Experiments:
# Type in all cases: in vivo
# [1] = tested on: redroot pigweed (Amaranthus retroflexus, AMARE); test: Pre-emerge test, greenhouse herbicide activity screening; conditions: rating scale 0-100, 14 days after application
# How it was run: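 Plants grown in 10 cm pots of sandy loam mix received acetone-dissolved compounds through a moving flat-fan nozzle. Doses ranged from 15 to 1000 g ai/ha. Pre-emerge pots were seeded one day earlier, post-emerge pots 8–21 days earlier. Fourteen days on, each pot was graded 0–100 for damage.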
# [2] = tested on: barnyardgrass (Echinochloa crus-galli, ECHCG); test: as above; conditions: rating scale 0-100, 14 days after application
# How it was run: (§1)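 Herbicidal damage is scored 0 (none) to 100 (complete plant death) two weeks after a simulated field spray. Rates span 15–1000 g ai/ha, delivered in acetone at 187 l/ha. For post-emergence treatments, plants have 2–3 leaves and the spray carries 0.25% v/v non-ionic surfactant.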
# [3] = tested on: common ragweed (Ambrosia artemisizfolia L., AMBEL); test: as above; conditions: rating scale 0-100, 14 days after application
# How it was run: as §1
# [4] = tested on: green foxtail (Setaria viridis, SETVI); test: as above; conditions: rating scale 0-100, 14 days after application
# How it was run: as §1
# [5] = tested on: ivyleaf morningglory (Ipomoea hederacea, IPOHE); test: as above; conditions: rating scale 0-100, 14 days after application
# How it was run: as §1
# [6] = tested on: johnsongrass (Sorghum halepense, SORHA); test: as above; conditions: rating scale 0-100, 14 days after application
# How it was run: as §1
# [7] = tested on: lambsquarters (Chenopodium album, CHEAL); test: as above; conditions: rating scale 0-100, 14 days after application
# How it was run: as §1
# [8] = tested on: large crabgrass (Digitaria sanguinalis, DIGSA); test: as above; conditions: rating scale 0-100, 14 days after application
# How it was run: as §1
# [9] = tested on: sicklepod (Cassia obtusifolia, CASOB); test: as above; conditions: rating scale 0-100, 14 days after application
# How it was run: as §1
# [10] = tested on: velvetleaf (Abutilon theophrasti, ABUTH); test: as above; conditions: rating scale 0-100, 14 days after application
# How it was run: as §1
# [11] = tested on: field corn (Zea mays L., var. Dekalb 535, CORN); test: Pre-emerge test, crop safety; conditions: rating scale 0-100, 14 days after application
# How it was run: (§2)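 Applied at 15–1000 g ai/ha from acetone in 187 l/ha spray volume. Post-emergence applications included 0.25% v/v non-ionic surfactant and reached plants sown 8–21 days before. Pre-emergence applications were incorporated by surface watering. Efficacy or crop damage was rated on a 0–100 scale after 14 days.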
# [12] = tested on: upland rice (Oryza sp., var. Tebonnet, RICE); test: Pre-emerge test, crop safety; conditions: rating scale 0-100, 14 days after application
# How it was run: as §2
# [13] = tested on: barnyardgrass (Echinochloa crus-galli, ECHCG); test: Post-emerge test, greenhouse herbicide activity screening; conditions: rating scale 0-100 (0 no damage, 100 complete death), 14 days after application
# How it was run: (§3)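 Each test used a mechanized track sprayer delivering 187 l/ha of acetone solution at 15–1000 g ai/ha. Post-emerge foliage at 2–3 leaves was treated with added 0.25% v/v non-ionic surfactant and bottom-watered only. Injury was assessed on day 14, where 100 means total kill.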
# [14] = tested on: green foxtail (Setaria viridis, SETVI); test: as above; conditions: rating scale 0-100 (0 no damage, 100 complete death), 14 days after application
# How it was run: as §3
# [15] = tested on: ivyleaf morningglory (Ipomoea hederacea, IPOHE); test: as above; conditions: rating scale 0-100 (0 no damage, 100 complete death), 14 days after application
# How it was run: as §3
# [16] = tested on: johnsongrass (Sorghum halepense, SORHA); test: as above; conditions: rating scale 0-100 (0 no damage, 100 complete death), 14 days after application
# How it was run: as §3
# [17] = tested on: lambsquarters (Chenopodium album, CHEAL); test: as above; conditions: rating scale 0-100 (0 no damage, 100 complete death), 14 days after application
# How it was run: as §3
# [18] = tested on: large crabgrass (Digitaria sanguinalis, DIGSA); test: as above; conditions: rating scale 0-100 (0 no damage, 100 complete death), 14 days after application
# How it was run: as §3
# [19] = tested on: redroot pigweed (Amaranthus retroflexus, AMARE); test: as above; conditions: rating scale 0-100 (0 no damage, 100 complete death), 14 days after application
# How it was run: as §3
# [20] = tested on: sicklepod (Cassia obtusifolia, CASOB); test: as above; conditions: rating scale 0-100 (0 no damage, 100 complete death), 14 days after application
# How it was run: as §3
# [21] = tested on: velvetleaf (Abutilon theophrasti, ABUTH); test: as above; conditions: rating scale 0-100 (0 no damage, 100 complete death), 14 days after application
# How it was run: as §3
# [22] = tested on: field corn (Zea mays L., var. Dekalb 535, CORN); test: Post-emerge test, crop safety; conditions: rating scale 0-100 (0 no damage, 100 complete death), 14 days after application
# How it was run: as §1
# [23] = tested on: upland rice (Oryza sp., var. Tebonnet, RICE); test: Post-emerge test, crop safety; conditions: rating scale 0-100 (0 no damage, 100 complete death), 14 days after application
# How it was run: as §1
structure (smiles),measurement,setting,value
COc1c(Cl)cc(F)c(-n2c(=O)cc(C(F)(F)F)n(C)c2=O)c1CC(C)(Cl)C(=O)OC(C(F)(F)F)C(F)(F)F (stereo not shown) [14-46],"Pre-emerge herbicidal activity, phytotoxicity rating AMARE",[1]; 63 g ai/ha,60
same,"Pre-emerge herbicidal activity, phytotoxicity rating AMARE",[1]; 250 g ai/ha,95
same,"Pre-emerge herbicidal activity, phytotoxicity rating ECHCG",[2]; 63 g ai/ha,0
same,"Pre-emerge herbicidal activity, phytotoxicity rating ECHCG",[2]; 250 g ai/ha,0
same,"Pre-emerge herbicidal activity, phytotoxicity rating AMBEL",[3]; 63 g ai/ha,50
same,"Pre-emerge herbicidal activity, phytotoxicity rating AMBEL",[3]; 250 g ai/ha,100
same,"Pre-emerge herbicidal activity, phytotoxicity rating SETVI",[4]; 63 g ai/ha,0
same,"Pre-emerge herbicidal activity, phytotoxicity rating SETVI",[4]; 250 g ai/ha,0
same,"Pre-emerge herbicidal activity, phytotoxicity rating IPOHE",[5]; 63 g ai/ha,0
same,"Pre-emerge herbicidal activity, phytotoxicity rating IPOHE",[5]; 250 g ai/ha,0
same,"Pre-emerge herbicidal activity, phytotoxicity rating SORHA",[6]; 63 g ai/ha,0
same,"Pre-emerge herbicidal activity, phytotoxicity rating SORHA",[6]; 250 g ai/ha,0
same,"Pre-emerge herbicidal activity, phytotoxicity rating CHEAL",[7]; 63 g ai/ha,0
same,"Pre-emerge herbicidal activity, phytotoxicity rating CHEAL",[7]; 250 g ai/ha,90
same,"Pre-emerge herbicidal activity, phytotoxicity rating DIGSA",[8]; 63 g ai/ha,0
same,"Pre-emerge herbicidal activity, phytotoxicity rating DIGSA",[8]; 250 g ai/ha,0
same,"Pre-emerge herbicidal activity, phytotoxicity rating CASOB",[9]; 63 g ai/ha,0
same,"Pre-emerge herbicidal activity, phytotoxicity rating CASOB",[9]; 250 g ai/ha,0
same,"Pre-emerge herbicidal activity, phytotoxicity rating ABUTH",[10]; 63 g ai/ha,80
same,"Pre-emerge herbicidal activity, phytotoxicity rating ABUTH",[10]; 250 g ai/ha,100
same,"Pre-emerge phytotoxicity rating, crop damage CORN",[11]; 63 g ai/ha,0
same,"Pre-emerge phytotoxicity rating, crop damage CORN",[11]; 250 g ai/ha,0
same,"Pre-emerge phytotoxicity rating, crop damage RICE",[12]; 63 g ai/ha,0
same,"Pre-emerge phytotoxicity rating, crop damage RICE",[12]; 250 g ai/ha,30
same,"Post-emerge Herbicidal Activity, phytotoxicity rating ECHCG",[13]; Rate 63 g ai/ha,100
same,"Post-emerge Herbicidal Activity, phytotoxicity rating ECHCG",[13]; Rate 250 g ai/ha,100
same,"Post-emerge Herbicidal Activity, phytotoxicity rating SETVI",[14]; Rate 63 g ai/ha,90
same,"Post-emerge Herbicidal Activity, phytotoxicity rating SETVI",[14]; Rate 250 g ai/ha,100
same,"Post-emerge Herbicidal Activity, phytotoxicity rating IPOHE",[15]; Rate 63 g ai/ha,100
same,"Post-emerge Herbicidal Activity, phytotoxicity rating IPOHE",[15]; Rate 250 g ai/ha,100
same,"Post-emerge Herbicidal Activity, phytotoxicity rating SORHA",[16]; Rate 63 g ai/ha,80
same,"Post-emerge Herbicidal Activity, phytotoxicity rating SORHA",[16]; Rate 250 g ai/ha,90
same,"Post-emerge Herbicidal Activity, phytotoxicity rating CHEAL",[17]; Rate 63 g ai/ha,100
same,"Post-emerge Herbicidal Activity, phytotoxicity rating CHEAL",[17]; Rate 250 g ai/ha,100
same,"Post-emerge Herbicidal Activity, phytotoxicity rating DIGSA",[18]; Rate 63 g ai/ha,80
same,"Post-emerge Herbicidal Activity, phytotoxicity rating DIGSA",[18]; Rate 250 g ai/ha,100
same,"Post-emerge Herbicidal Activity, phytotoxicity rating AMARE",[19]; Rate 63 g ai/ha,95
same,"Post-emerge Herbicidal Activity, phytotoxicity rating AMARE",[19]; Rate 250 g ai/ha,100
same,"Post-emerge Herbicidal Activity, phytotoxicity rating CASOB",[20]; Rate 63 g ai/ha,60
same,"Post-emerge Herbicidal Activity, phytotoxicity rating CASOB",[20]; Rate 250 g ai/ha,90
same,"Post-emerge Herbicidal Activity, phytotoxicity rating ABUTH",[21]; Rate 63 g ai/ha,100
same,"Post-emerge Herbicidal Activity, phytotoxicity rating ABUTH",[21]; Rate 250 g ai/ha,100
same,Post-emerge phytotoxicity rating CORN (crop damage),[22]; Rate 63 g ai/ha,95
same,Post-emerge phytotoxicity rating CORN (crop damage),[22]; Rate 250 g ai/ha,100
same,Post-emerge phytotoxicity rating RICE (crop damage),[23]; Rate 63 g ai/ha,60
same,Post-emerge phytotoxicity rating RICE (crop damage),[23]; Rate 250 g ai/ha,100
